pIC50: −log10 of the molar value. Values joined by “and” are separate entries in the source; they are usually repeats but may differ in a detail not shown here. Identical values can stand only once. Like-named read-outs stand apart in the source and are kept apart here.

A short description of series [1]: Pharmacokinetic evaluation of compound in Balb/c mice. Type of series: in vivo. The note with it: 1 mg/kg, PO; for AUC(0-t) / Cmax / half-life: male, mouse, plasma. The protocol:
Sample preparation: About 0.2 mg of the compound was dissolved in 10 µL DMSO, then a sodium chloride injection was added to make a 0.1 mg·mL^-1 solution of the compound for administration.
Three mice were administered the compound intravenously (IV) at a dose of 1 mg·kg^-1, and the other three were administered the compound orally (PO) at the same dose. […] The plasma concentration of the drug was quantitatively analyzed with the LC-MS/MS method, and pharmacokinetic parameters were calculated, including the […] (Cmax), area under the concentration-time curve (AUC(0-t)), half-life (T1/2), clearance (CL), volume of distribution at steady state (Vdss), and bioavailability (F).

The test system of series [2] is BRCA wild-type DLD-1 cells. Kind of series: Anti-proliferative activity assay of cell (CCK8), DLD-1. Type of series: cell-based. The note with it: Homo sapiens; BRCA wild-type DLD-1 cells, 72 h + 96 h, CCK8; read-out: DLD-1 IC50.
The target in series [3] is T1, PARP5A (Homo sapiens, UniProt O95271).
T1 construct: purchased BPS 80504
T1 sequence (O95271 1001-1327): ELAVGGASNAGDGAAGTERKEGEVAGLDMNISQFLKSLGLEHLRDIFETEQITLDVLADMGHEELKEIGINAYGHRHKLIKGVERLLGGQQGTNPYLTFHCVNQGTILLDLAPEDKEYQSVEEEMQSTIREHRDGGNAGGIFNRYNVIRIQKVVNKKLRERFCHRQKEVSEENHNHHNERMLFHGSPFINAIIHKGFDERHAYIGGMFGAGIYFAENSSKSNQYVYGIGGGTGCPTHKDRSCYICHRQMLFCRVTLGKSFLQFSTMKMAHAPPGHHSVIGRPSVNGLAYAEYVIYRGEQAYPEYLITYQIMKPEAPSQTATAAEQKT
The series is described as follows: Determination of PARP5A enzyme (histone-coated plate, Biotin-NAD+). Type of series: biochemical. Here is the method:
• 1.3.1 Preparation of buffer solution solution: PBST: 1x PBS, 0.05% Tween-20; blocking solution: 1x PBS, 0.05% Tween-20, 5% BSA; reaction buffer solution: 50 mM HEPES (pH 7.5), 0.002% Tween-20, 0.1% BSA, 100 mM NaCl, 2mM DTT. • 1.3.2 Coating: A 100 ng/mL Histone coating solution was prepared by using 1x PBS, 25 uL of the coating solution was transferred to a 384-well reaction plate, and the reaction plate was coated overnight at 4°C. • 1.3.3 Washing: After the coating was completed, the coating solution was discarded, and the reaction plate was washed with the PBST solution by means of transferring 50uL of the PBST solution to the 384-well reaction plate, letting it stand for 5 min, discarding the washing solution, refilling the reaction plate with the PBST solution, and repeating the washing process 3 times. Finally, the reaction plate was tapped dry and the next step of blocking was proceeded with. • 1.3.4 Blocking: 50 uL of the blocking solution was transferred to the 384-well reaction plate and set for 1 h. • 1.3.5 Washing: After the blocking was completed, the blocking solution was discarded, the reaction plate was washed 3 times with the PBST solution according to the method in Step 2, and the reaction plate was tapped dry. • 1.3.6 A 25/10× PARP5A solution was prepared, then 10 µL of the PARP5A solution was transferred to the 384-well reaction plate. For negative control wells, 10 µL of the reaction buffer solution instead was transferred, resulting in the final concentration of PARP5A of 10 nM. • 1.3.7 A 2,000x compound was prepared, 50 nL of the compound was transferred to with echo, 19.95 uL of the reaction buffer solution was added into the compound, mix well, and 5 uL of the mixed compound was transferred to the 384-well reaction plate. • 1.3.8 A 25/10x Biotin-NAD+ solution was prepared, 10uL of the Biotin-NAD+ solution was transferred to the 384-well reaction plate, resulting in a final Biotin-NAD+ concentration of 2uM, and incubated at room temperature for 60 min. • 1.3.9 Washing: After the reaction was completed, the reaction liquid was discarded. The reaction plate was washed 3 times with the PBST solution according to the method in Step 2, and the reaction plate was tapped dry. • 1.3.10 A Stre-HRP solution was prepared by means of diluting it with the blocking solution, 25uL of the Stre-HRP solution was transferred to the reaction plate, and incubated at room temperature for 1 h, resulting the final concentration of Stre-HRP of 0.1 µg/mL. • 1.3.11 Washing: The Stre-HRP solution was discarded, the reaction plate was washed 3 times with the PBST solution according to the method in Step 2, and the reaction plate was tapped dry. • 1.3.12 Color developing: Femto-ECL Substrate A, Femto-ECL Substrate B, and QuantaRed ADHP were mixed in a 50:50:1 ratio.

The target in series [4] is T2, PARP2 (Homo sapiens, UniProt Q9UGN5).
T2 construct: purchased BPS 80502
T2 sequence (Q9UGN5 whole entry): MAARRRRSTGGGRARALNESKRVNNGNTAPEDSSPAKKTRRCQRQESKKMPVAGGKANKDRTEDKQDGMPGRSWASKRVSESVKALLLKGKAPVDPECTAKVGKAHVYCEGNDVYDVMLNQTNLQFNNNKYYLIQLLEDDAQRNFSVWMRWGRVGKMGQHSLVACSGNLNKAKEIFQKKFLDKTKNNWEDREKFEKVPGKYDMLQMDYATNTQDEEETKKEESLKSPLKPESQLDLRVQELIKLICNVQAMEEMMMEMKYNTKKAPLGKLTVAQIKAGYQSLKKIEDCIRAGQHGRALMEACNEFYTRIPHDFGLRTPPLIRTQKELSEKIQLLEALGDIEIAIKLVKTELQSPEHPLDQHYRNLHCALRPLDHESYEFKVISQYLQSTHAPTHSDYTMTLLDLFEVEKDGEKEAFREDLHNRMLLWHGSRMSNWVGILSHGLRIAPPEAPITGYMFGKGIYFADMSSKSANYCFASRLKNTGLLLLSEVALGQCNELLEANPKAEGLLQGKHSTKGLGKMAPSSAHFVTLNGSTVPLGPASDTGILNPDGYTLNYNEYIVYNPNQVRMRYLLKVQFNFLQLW
Kind of series: Determination of PARP2 enzyme (histone-coated plate, Biotin-NAD+). Type of series: biochemical. The note with it: read-out: PARP-2 IC50. The protocol: • 1.2.1 Preparation of buffer solution: PBST: 1x PBS, 0.05% Tween-20; blocking solution: 1x PBS, 0.05% Tween-20, 5% BSA; reaction buffer solution: 50 mM HEPES (pH 7.5), 0.002% Tween-20, 0.1% BSA, 100 mM NaCl, 2mM DTT. • 1.2.2 Coating: A 100 ng/mL Histone coating solution was prepared by using 1x PBS, 25 uL of the coating solution was transferred to a 384-well reaction plate, and the reaction plate was coated overnight at 4°C. • 1.2.3 Washing: After the coating was completed, the coating solution was discarded, and the reaction plate was washed with the PBST solution by means of transferring 50uL of the PBST solution to the 384-well reaction plate, letting it stand for 5 min, discarding the washing solution, refilling the reaction plate, and repeating the washing process 3 times. Finally, the reaction plate was tapped dry and the next step of blocking was proceeded with. • 1.2.4 Blocking: 50 uL of the blocking solution was transferred to the 384-well reaction plate and set for 1 h. • 1.2.5 Washing: After the blocking was completed, the blocking solution was discarded, the reaction plate was washed 3 times with the PBST solution according to the method in Step 2, and the reaction plate was tapped dry. • 1.2.6 A 25/10× PARP2 solution was prepared, then 10 µL of the PARP2 solution was transferred to the 384-well reaction plate.

In series [5] the target is PARP1 (Homo sapiens, UniProt P09874). The series is described as follows: Determination of PARP1 enzyme (histone-coated plate, chemiluminescence). Type of series: biochemical.
Chain of PARP1 (P09874 whole entry): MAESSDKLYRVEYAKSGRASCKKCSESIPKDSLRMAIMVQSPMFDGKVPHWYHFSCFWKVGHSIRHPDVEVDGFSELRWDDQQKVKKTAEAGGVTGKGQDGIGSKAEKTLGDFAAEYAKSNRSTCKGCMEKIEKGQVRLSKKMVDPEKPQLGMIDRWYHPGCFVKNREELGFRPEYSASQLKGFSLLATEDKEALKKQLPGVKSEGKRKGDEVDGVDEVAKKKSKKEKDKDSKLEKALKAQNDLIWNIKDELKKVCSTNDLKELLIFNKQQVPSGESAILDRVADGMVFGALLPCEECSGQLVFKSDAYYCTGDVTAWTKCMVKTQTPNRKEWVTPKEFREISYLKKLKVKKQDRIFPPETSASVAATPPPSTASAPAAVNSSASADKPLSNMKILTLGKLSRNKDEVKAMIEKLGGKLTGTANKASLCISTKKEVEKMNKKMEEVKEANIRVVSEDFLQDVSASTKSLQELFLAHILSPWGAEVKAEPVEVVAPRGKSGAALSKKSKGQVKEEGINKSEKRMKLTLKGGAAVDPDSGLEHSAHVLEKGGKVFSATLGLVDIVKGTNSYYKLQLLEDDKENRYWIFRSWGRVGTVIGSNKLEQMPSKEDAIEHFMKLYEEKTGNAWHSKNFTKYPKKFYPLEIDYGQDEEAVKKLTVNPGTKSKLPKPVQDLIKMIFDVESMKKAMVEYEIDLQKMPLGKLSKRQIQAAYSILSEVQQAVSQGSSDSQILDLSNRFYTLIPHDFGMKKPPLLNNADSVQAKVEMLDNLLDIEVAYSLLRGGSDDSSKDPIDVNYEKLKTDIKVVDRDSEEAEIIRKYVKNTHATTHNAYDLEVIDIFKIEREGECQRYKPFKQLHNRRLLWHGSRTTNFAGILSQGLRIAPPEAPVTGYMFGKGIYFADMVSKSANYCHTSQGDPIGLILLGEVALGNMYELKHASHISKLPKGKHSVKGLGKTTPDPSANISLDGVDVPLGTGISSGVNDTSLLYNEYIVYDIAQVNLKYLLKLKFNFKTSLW
In series [6] the test system is breast cancer MDA-MB-436. Kind of series: In-vivo pharmacodynamic study on subcutaneous xenograft tumor model of breast cancer MDA-MB-436. The note with it: 100 mg/kg orally once daily. Set-up: species or system NOD/SCID mice. The protocol: Strain: NOD/SCID; Grade: SPF; Source: Beijing Vitron River Bio-technology Co., Ltd.
The cells were washed 3 times with pre-cooled PBS, centrifuged at 300 g for 10 min, collected, re-suspended in PBS, and counted with a blood cell counting chamber, and the cell concentration was adjusted. After cell collection, the cell suspension was pre-cooled on ice. 100 µL of the cell suspension was administered via subcutaneous injection into the dorsal flank of the mice, and the grouped treatment was started when the tumor volume reached 200-300 mm^3.
General observation: Observation of animals: all live experimental animals to be observed; Observation time: twice a day; Observation items: including but not limited to general performance, behavioral status, eyes, mouth, nose and mouth, ears, hair, stool, urine, genitalia and other toxic symptoms; If abnormalities are observed, provide a detailed description.
Animal assay: all viable experimental animals scheduled for assay; Assay time: All animals were weighed before the modeling for test grouping. After modeling, the mice were weighed once every 2 days, and the weight change of the mice was recorded in real time. Effective criteria: tumor volume (TV), relative tumor volume (RTV) and relative tumor growth rate of subcutaneously implanted tumor model. […] The calculation formula of tumor volume (TV) was: TV (mm^3) = a×b2×0.5, where a and b were the long diameter and short diameter, respectively.
The evaluation index for anti-tumor activity was the relative tumor growth rate T/C (%), and the calculation formula was as follows: T/C(%) = TRTV/CRTV × 100%; [formula]
Where, TRTV is relative tumor volume of the treatment group; CRTV is relative tumor volume of the negative control group. Therapeutic evaluation criteria: T/C (%)> 60 is considered ineffective; T/C (%) ≤ 60, and P < 0.05 (through statistical analysis) is considered effective. Measurement of tumor weight and tumor inhibition rate (%): At the end of the treatment period, the animals were euthanize, tumor masses dissected and isolated, tumors weighed, and photographs took. The tumor inhibition rate (%) was calculated by the formula below: [formula]
All raw data within the facility were collected manually according to the experimental scheme and the relevant guidelines of the research institution, or gathered by using a data acquisition system. Manually collected data can be transcribed into software such as Excel for analysis and reporting. The data from each group were quantitative, and the experimental data for each group of animals in the tables were expressed as mean ± standard deviation (Mean ± SD). In the figures, the experimental data ware described as mean ± standard error of the mean (Mean ± SEM). Statistical analysis, including t-tests and survival analysis, was performed by using the software such as EXCEL and GraphPad Prism.
After 24 days of administration, the tumor-bearing mice were anesthetized and euthanized. The tumor tissues were dissected, weighed, and photographed, and the tumor inhibition rate was calculated.

For orientation: AUC(0-t) means the area under the concentration-time curve up to a stated or last time point. Usually Cmax stands for the maximum level reached in the sampled fluid or tissue. A word on the half-life: it is the time in which the quantity being followed falls by half. Lower therefore signals rapid decline. What is called pIC50 is −log10 of the IC50, conventionally taken in molar units. In series [1], `[2H]C([2H])([2H])NC(=O)c1ccc(C2=CCN(Cc3ccc4nc(CC)c(=O)[nH]c4c3F)CC2)cn1` [Compound 4, 1'-((2-Ethyl-5-fluoro-3-oxo-3,4-dihydroquinoxalin-6-yl)methyl)-N-(methyl-d3)-1',2',3',6'-tetra hydro-[3,4'-bipyridine]-6-carboxamide] gave a CL of 0.17 mL/min/kg, a Vdss of 0.14 L/kg, an AUC(0-t) of 122000 ng·h/mL and a Cmax of 7370 ng/mL. The compound further had a half-life in series [1] of 11.5 h. Besides, in series [2], the pIC50 was under 5.00.

In series [1], `[2H]C([2H])([2H])NC(=O)c1ccc(C2=CCN(Cc3cnc4cc(CC)c(=O)[nH]c4c3)CC2)c(C)n1` [Compound 8, 1'-((7-ethyl-6-oxo-5,6-dihydro-1,5-naphthyridin-3-yl)methyl)-2-methyl-N-(methyl-d3)-1',2',3', 6'-tetrahydro-[3,4'-bipyridine]-6-carboxamide] had a Vdss of 0.14 L/kg, an AUC(0-t) of 42300 ng·h/mL, a Cmax of 5010 ng/mL and a half-life of 4.1 h.

In series [1], `[2H]C([2H])([2H])NC(=O)c1ccc(C2=CCN(Cc3cnc4cc(CC)c(=O)[nH]c4c3)CC2)c(F)n1` [Compound 10, 1'-((7-ethyl-6-oxo-5,6-dihydro-1,5-naphthyridin-3-yl)methyl)-2-fluoro-N-(methyl-d3)-1',2',3', 6'-tetrahydro-[3,4'-bipyridine]-6-carboxamide] had a Vdss of 0.15 L/kg, an AUC(0-t) of 44600 ng·h/mL, a Cmax of 3840 ng/mL and a half-life of 4.64 h. In addition, the pIC50 in series [2] is under 5.00.

As for `[2H]C([2H])([2H])NC(=O)c1ccc(C2=CCN(Cc3cnc4cc(C([2H])([2H])C([2H])([2H])[2H])c(=O)[nH]c4c3)CC2)cn1` [Compound 11, 1'-((7-(ethyl-d5)-6-oxo-5,6-dihydro-1,5-naphthyridin-3-yl)methyl)-N (methyl-d3)-1',2',3',6'-tet rahydro-[3,4'-bipyridine]-6-carboxamide], the pIC50 in series [3] (read-out: PARP-5a IC50) and in series [4] was under 6.00 throughout.

Regarding `[2H]C([2H])([2H])C([2H])([2H])c1nc2ccc(CN3CC=C(c4ccc(C(=O)NC)nc4)CC3)c(F)c2[nH]c1=O` [Compound 13, 1'-((2-(ethyl-d5)-5-fluoro-3-oxo-3,4-dihydroquinoxalin-6-yl)methyl)-N-methyl-1',2',3',6'-tetra hydro-[3,4'-bipyridine]-6-carboxamide], the PARP-1 inhibition ratio in series [5] is 96.1% and 98.5%. The pIC50 in series [3] was under 6.00; in series [2], under 5.00; in series [4], under 6.00.

`[2H]C([2H])([2H])C([2H])([2H])c1nc2ccc(CN3CC=C(c4ccc(C(=O)NC)nc4F)CC3)c(F)c2[nH]c1=O` [Compound 14, 1'-((2-(ethyl-d5)-5-fluoro-3-oxo-3,4-dihydroquinoxalin-6-yl)methyl)-2-fluoro-N-methyl-1',2',3 '6'-tetrahydro-[3,4'-bipyridine]-6-carboxamide]: the PARP-1 inhibition ratio in series [5] (10 nM) was found to be 98.9%; in series [5] (100 nM), 99.1%. In addition, the pIC50 in series [3] (read-out: PARP-5a IC50) is under 6.00; in series [2], under 5.00; in series [4], under 6.00.

Turning to `[2H]C([2H])([2H])Cc1cc2ncc(CN3CC=C(c4ccc(C(=O)NC)nc4)CC3)cc2[nH]c1=O` [Compound 16, 1'-((7-(ethyl-2,2,2-d3)-6-oxo-5,6-dihydro-1,5-naphthyridin-3-yl)methyl)-N-methyl-1',2',3',6'-t etrahydro-[3,4'-bipyridine]-6-carboxamide], the pIC50 in series [3] (read-out: PARP-5a IC50) and in series [4] was under 6.00 each time.

`O=C(c1cc(Cc2n[nH]c(=O)c3ccccc23)ccc1F)N1CCN(C(=O)C2CC2)CC1` [Olaparib, reference compound]: in series [6] (24 days), the RTV was 2.2, the “Tumor inhibition rate (%)” value was found to be 62.19%, the “Tumor volume T/C%” value was determined as 33.4% and the “Tumor weight (g) X±SD” value came out at 0.82 ± 0.39 g. In series [6] (End, 24 days), the “Body weight (g) X±SD End” value came to 21.7 ± 1.4 g and the “Tumor volume (mm^3) X±SD End” value was determined as 551.5±343.1 mm^3. In series [6] (Start), the “Body weight (g) X±SD Start” value was 21.9 ± 1.1 g and the “Tumor volume (mm^3) X±SD Start” value stood at 250.7±70.0 mm^3.

The record behind these values is patent publication EP4606801A1, “FUSED HETEROCYCLIC COMPOUND AND USE THEREOF” (Chengdu Zenitar Biomedical Technology Co., Ltd., priority 2022, dated 2024).
